Experiments:
[1] = Fluorescence emission in glycerol versus methanol (viscosity response); format: physicochemical; details: for Glycerol/methanol fluorescence intensity ratio: 1×10^-5 M in glycerol and methanol, maximum excitation wavelength of each dye; for Emission (nm): 1×10^-5 M, maximum excitation wavelength of each fluorescent dye
[2] = Fluorescence emission at different viscosity conditions in diethanol-glycerol mixed solution; format: physicochemical; details: 1×10^−5 M, excitation at 480 nm
[3] = system: F30-8Pepper-5 RNA aptamer; experiment: Binding to RNA aptamer, optical properties after binding; details: for Em/nm / Ex/nm / ε / QY (−): after binding to RNA aptamer; for QY (−): relative method with Rhodamine 6G as the standard; for Kd: binding to RNA aptamer; for Activation Multiple: fluorescence activation after binding to RNA aptamer
[4] = system: RNA aptamer in cells; experiment: Labeling intracellular RNA aptamers in cells; format: cell-based; details: for Fluorescence of cells not expressing the RNA aptamer: cells not expressing the RNA aptamer (FIG. 17B); for Fluorescence of cells transcribing the RNA aptamer: cells transcribing the RNA aptamer (FIG. 17A)
[5] = system: ACTB-4Pepper RNA aptamer (skeleton protein mRNA) in 293T/17 cell line; experiment: Labeling intracellular mRNA, flow detection; format: cell-based; details: 0.2 μM in PBS, incubated for 5 minutes
Source text: FIGS. 18A and 18B are the application of molecular rotors III-3, III-43 in labeling intracellular mRNA.

Structure (SMILES)	Glycerol/methanol fluorescence intensity ratio [1]	Emission (nm) [1]	also measured
CNc1ccc2cc(/C=C(\C#N)c3ccc(C#N)cc3)sc2c1 [III-17]	828	587 nm	
CCN(CC)CCN(C)c1ccc(/C=C(\C#N)c2ccc(C#N)cc2)cn1 [III-9]	920	490 nm	
CCOC(=O)c1ccc(/C(C#N)=C/c2cc3sc4cc(N(C)C)sc4c3s2)cc1 [III-29]	684	665 nm	
CCN(CC)c1cc2sc(/C=C(\C#N)c3ccc(C#N)cc3)cc2s1 [III-20]	836	620 nm	
CN(C)c1ccc(/C=C(\C#N)c2ccc(C#N)cc2)cc1 [III-1]	990	530 nm	
CN(C)c1ccc(/C=C(\C#N)c2ccc(C#N)cc2)nc1 [III-10]	1620	520 nm	
CN(CCO)c1ccc(/C=C(\C#N)c2cnc(C#N)cn2)cc1 [III-14]	785	550 nm	
N#C/C(=C\c1cc2c3c(c1)CCCN3CCC2)c1ccc(C#N)cc1 [III-15]	1011	561 nm	
CN(CCO)c1cc2c(s1)-c1sc(/C=C(\C#N)c3ccc(C(N)=O)cc3)cc1C2(C)C [III-34]	489	689 nm	Sensitivity of fluorescence intensity to viscosity [2]: sensitive to viscosity
CN(CCO)c1cc2sc(/C=C(\C#N)c3ccc(C#N)cc3)cc2s1 [III-21]	544	620 nm	Em/nm [3]: 620 nm; Ex/nm [3]: 577 nm; ε [3]: 10000 M⁻¹ cm⁻¹; QY (−) [3]: 0.58; Kd [3]: 6.1 nM; Activation Multiple [3]: 12600; Fluorescence of cells not expressing the RNA aptamer [4]: no fluorescence; Fluorescence of cells transcribing the RNA aptamer [4]: bright fluorescence
CN(CCO)c1ccc2cc(/C=C(\C#N)c3ccc(C#N)cc3)sc2c1 [III-18]	978	595 nm	Em/nm [3]: 599 nm; Ex/nm [3]: 515 nm; ε [3]: 54400 M⁻¹ cm⁻¹; QY (−) [3]: 0.43; Kd [3]: 18 nM; Activation Multiple [3]: 708; Fluorescence of cells not expressing the RNA aptamer [4]: no fluorescence; Fluorescence of cells transcribing the RNA aptamer [4]: bright fluorescence
CN(C)c1ccc(-c2ccc(/C=C(\C#N)c3ccc(C#N)cc3)s2)cc1 [III-23]	687	661 nm	
CN(CCO)c1ncc(/C=C(\C#N)c2ccc(C#N)cc2)cn1 [III-11]	869	470 nm	
N#C/C(=C\c1ccc(-c2ccc(N3CCOCCOCCOCCOCC3)cc2)s1)c1ccc(C#N)cc1 [III-24]	596	662 nm	
CN(C)c1ccc(-c2ccc(/C=C(\C#N)c3ccc(C(=O)O)cc3)s2)s1 [III-26]	368	676 nm	
CN(C)CCN(C)c1cnc(/C=C(\C#N)c2ccc(C#N)cc2)cn1 [III-7]	977	485 nm	Em/nm [3]: 485 nm; Ex/nm [3]: 443 nm; ε [3]: 49100 M⁻¹ cm⁻¹; QY (−) [3]: 0.42; Kd [3]: 8 nM; Activation Multiple [3]: 691; Fluorescence of cells not expressing the RNA aptamer [4]: no fluorescence; Fluorescence of cells transcribing the RNA aptamer [4]: bright fluorescence
CN(CCO)c1ccc(/C=C(\C#N)c2ccc(C#N)cc2)cn1 [III-8]	1168	495 nm	

Structure (SMILES)	Glycerol/methanol fluorescence intensity ratio [1]	Emission (nm) [1]	also measured
CN(CCO)c1cc2sc3cc(/C=C(\C#N)c4ccc(C#N)cc4)sc3c2s1 [III-28]	559	662 nm	Sensitivity of fluorescence intensity to viscosity [2]: sensitive to viscosity
CN(CCO)c1ccc(/C=C(\C#N)c2ccc(C#N)cn2)cc1 [III-13]	752	545 nm	
CN(C)c1cc2sc3cc(/C=C(\C#N)c4ccc([S+](C)[O-])cc4)sc3c2s1 (centres unmarked) [III-30]	756	660 nm	
CN(CCO)c1ccc(/C=C(\C#N)c2nc3ccccc3s2)cc1 [III-43, reference compound]			Background fluorescence in cells [5]: higher than III-3; Labeling of skeleton protein mRNA in cell lines expressing target RNA [5]: unclear whether ACTB was expressed
CN(C)CCN(C)c1cnc(/C=C(\C#N)c2ccc(C#N)cc2)nc1 [III-12]	855	542 nm	
CN(C)c1cc2sc(/C=C(\C#N)c3ccc(C#N)cc3)cc2s1 [III-19]	991	620 nm	
CCN(CC)c1ccc(-c2ccc(/C=C(\C#N)c3ccc(C#N)cc3)s2)s1 [III-25]	783	678 nm	
CN(C)CCN(C)c1ccc(/C=C(\C#N)c2ccc(C#N)cc2)cc1 [III-4]	892	521 nm	Sensitivity of fluorescence intensity to viscosity [2]: sensitive to viscosity; Em/nm [3]: 514 nm; Ex/nm [3]: 458 nm; ε [3]: 44100 M⁻¹ cm⁻¹; QY (−) [3]: 0.45; Activation Multiple [3]: 4748; Fluorescence of cells not expressing the RNA aptamer [4]: no fluorescence; Fluorescence of cells transcribing the RNA aptamer [4]: bright fluorescence
CCN(CC)c1ccc(/C=C(\C#N)c2ccc(C#N)cc2)cc1 [III-2]	870	530 nm	
CN1CCc2cc(/C=C(\C#N)c3ccc(C#N)cc3)ccc21 [III-16]	491	555 nm	
COCCOCCOCCOCCOCCN(C)c1cc2c(s1)-c1sc(/C=C(\C#N)c3ccc(C#N)cc3)cc1C2(C)C [III-35]	710	690 nm	
CN(CCO)c1cnc(/C=C(\C#N)c2ccc(C#N)cc2)cn1 [III-6]	1148	490 nm	Em/nm [3]: 497 nm; Ex/nm [3]: 435 nm; ε [3]: 54700 M⁻¹ cm⁻¹; QY (−) [3]: 0.57; Kd [3]: 6.7 nM; Activation Multiple [3]: 16601; Fluorescence of cells not expressing the RNA aptamer [4]: no fluorescence; Fluorescence of cells transcribing the RNA aptamer [4]: bright fluorescence
CN(CCO)c1cc2c(s1)-c1sc(/C=C(\C#N)c3ccc(S(N)(=O)=O)cc3)cc1[Si]2(C)C [III-32]	817	690 nm	
CN(C)c1ccc(-c2ccc(/C=C(\C#N)c3ccc(C#N)cc3)cc2)cc1 [III-22]	989	650 nm	
CN(CCO)c1cc2c(s1)-c1sc(/C=C(\C#N)c3ccc(C#N)cc3)cc1[Si]2(C)C [III-33]	691	705 nm	
CN(CCO)c1ccc(/C=C(\C#N)c2ccc(C#N)cc2)cc1 [III-3]	1025	530 nm	Sensitivity of fluorescence intensity to viscosity [2]: sensitive to viscosity; Em/nm [3]: 530 nm; Ex/nm [3]: 485 nm; ε [3]: 65300 M⁻¹ cm⁻¹; QY (−) [3]: 0.66; Kd [3]: 3.5 nM; Activation Multiple [3]: 3595; Fluorescence of cells not expressing the RNA aptamer [4]: no fluorescence; Fluorescence of cells transcribing the RNA aptamer [4]: bright fluorescence; Background fluorescence in cells [5]: no obvious background fluorescence; Labeling of skeleton protein mRNA in cell lines expressing target RNA [5]: could specifically mark the mRNA of skeleton protein

— patent US12625141B2, “Fluorescent dye, preparation method and uses thereof” (FLUORESCENCE DIAGNOSIS (SHANGHAI) BIOTECH COMPANY LTD., priority 2019, dated 2026)
